# Measured values taken from patent US11046647B2, “Activators of the unfolded protein response” (The Board of Trustees of the University of Illinois, priority 2018, dated 2021).
# Tests used:
# Type in all cases: cell-based, human
# TDG cells = assay: Trypan Blue exclusion cell death assay, TDG / TDG-Luc; details: 24 hours
# Text: (§1) TRYPAN BLUE: For decades, viable cells have been measured by their ability to exclude the dye Trypan Blue. […] Dead cells, which have lost membrane integrity, take up the dye and are blue. Thus, the percentage of dead cells is the percentage of cells that are Trypan Blue positive out of the total cell population. Quantitative assessment of Trypan Blue uptake uses a cell counter from Fisher. Since the assay is instrument based, there is no observer bias in determining the percentage of Trypan Blue positive cells.
# (§2) TRYPAN BLUE ASSAYS: Assays are performed on cells in 6 well plates: 300,000 cells are plated in each well of a 6-well plate in 3 ml of medium. After 24 hours, the DMSO vehicle or the indicated compound is added (in 1000th of the vol.) The cells incubated for an additional 24 hours, and then harvested in 0.25 ml of trypsin, followed after harvest by 0.75 ml of medium. The cells are spun down and resuspended in 100-200 μl of medium left that is over the cell pellet (resuspend cells by pipetting up and down a few times). Add 10 μl to 10 μl of trypan blue. Then 10 μl is inserted into the counting slide. After inserting the slide into the Fisher TC20 counting is automatic (these many cells are needed because an accurate ratio of Trypan Blue positive to Trypan Blue negative cells requires about 200 cells in the field the instrument counts).
# The Trypan Blue cell death assay was used to evaluate the ability of the active enantiomer of C-105 [(−)-105] to kill ERα positive TDG-Luc cells. For all studies, 300,000 TDG-Luc cells/well in 10% FBS were plated in a 6-well plate in triplicate. 24 hours after plating, the indicated concentrations the active enantiomer of (−)-105, or BHPI (top) ICI, or OHT (Lower left) or (+)-105 (lower right) were added. After 24 hours, the cells were harvested, and the % dead cells was determined by automated Trypan Blue exclusion using the Countess II automated hemocytometer. Percentage of viable cells was calculated by doing 100-(Cell Death %). (n=3±SEM).
# TDG cells were incubated for 24 hours with 75 nM of BHPI or 75 nM of each of the indicated test compounds: 4, 6 and (±)-105 (enantiomers not separated). Cell death was determined using the instrument-based Trypan Blue exclusion assay. Structures are in the Synthesis section. […] (n=3±SEM).
# TYS cells = assay: Trypan Blue exclusion cell death assay, TYS / TYS-Luc; details: 24 hours
# Text: as §1, §2
# The Trypan Blue cell death assay was used to evaluate the ability of the active enantiomer of 105 (−) [(−)-105] to kill ERα positive MCF-7 and TYS-Luc, human breast cancer cells. 300,000 T47D cells/well in 10% FBS were plated in a 6-well plate in triplicate. 24 hours after plating, the indicated concentrations of BHPI, or the active enantiomer 105 (−) of C-105 [(−)-105] was added. After 24 hours, the cells were harvested, and the % dead cells was determined by automated Trypan Blue exclusion using the Countess II automated hemocytometer. Percentage of viable cells was calculated by doing 100-(Cell Death %). (n=3±SEM).
# TYS cells were incubated for 24 hours with 35 nM of BHPI or 35 nM of each of the indicated test compounds: 2, 4, and 105. Cell death was determined using the instrument-based Trypan Blue exclusion assay.
# TYS cells were incubated for 24 hours with 50 nM of BHPI or 50 nM of each of the indicated test compounds: 4, 6 and 105. Cell death was determined using the instrument-based Trypan Blue exclusion assay. (n=3±SEM).
# MCF-7 cells [1] = assay: Dose-dependent death of MCF-7 cells (FIG. 10)
# MCF-7 cells [2] = assay: Alamar Blue/raptinal 24-hour cell death assay, MCF-7; details: for IC50: 24-hour incubation, Alamar blue fluorescence, normalized to vehicle and raptinal
# Procedure: FIG. 4. […] MCF7 (ERα) cells, 24 hour incubation, read out via Alamar Blue Fluorescence, Dead Control: Raptinal, n=3 (A, B). […] Orthotopic Mouse Xenograft breast cancers of TYS cells, Visualization by bioluminescent imaging. Treatment: 40 mg/kg daily (−)-105 for 3 days either by oral gavage or by intraperitoneal injection.
# ALAMAR BLUE/RAPTINAL ASSAY: Live cells maintain a reducing environment. The non-fluorescent cell permeable ingredient of Alamar Blue® (resazurin) is taken up by cells. In living cells, it is reduced to the fluorescent compound resorufin. Using a standard curve of cell number versus fluorescence the number of live cells in a test sample can be determined. At high concentrations raptinal kills 100% of cells. The vehicle in which the test compound is dissolved is not toxic. Thus, after subtracting the blank for medium alone, the fluorescence reading for vehicle corresponds to 100% viable cells and the signal for raptinal corresponds to 0% viable cells. While this assay provides a less direct measurement of cell death than the trypan blue assay, it is more easily scaled up to large numbers of samples.
# ALAMAR BLUE RAPTINAL ASSAYS: Cells were plated at 4,000-10,000 cells/well (96 well plate), usually in 50 μl of medium. After about 18 hours, an additional 50 μl of medium containing 2× the desired final concentration of the test compound (C-105) was added to each well. After 24 hours Alamar Blue reagent was added and fluorescence in the wells was read (BMG PheraStar or Molecular Devices Spectra Max M3 Microplate Reader). % relative death was determined by setting the reading for raptinal-treated cells to 100% dead cells and the reading for vehicle-treated cells to 0% dead cells.
# Preparative gram-scale chiral separation of (±)-1 yields enantiopure (R)-1 and (S)-1 with opposite optical rotations (Scheme 5). […] Values were obtained after 24-hour incubation utilizing Alamar blue fluorescence assay normalized to live and death controls (vehicle and raptinal treated). (S)-1 IC50 is >1 μM. Error shown as S.E.M.
# T47D cells = assay: Trypan Blue exclusion cell death assay, T47D / T47D-Luc; details: 24 hours
# Text: as §1
# as §2, with “After inserting the slide into the Fisher TC20 counting is automatic (these many cells are needed because an accurate ratio of Trypan Blue positive to Trypan Blue negative cells requires about 200 cells in the field the instrument counts).” left out
# The Trypan Blue cell death assay was used to compare the ability of the active (−) enantiomer of C-105 and BHPI to kill estrogen receptor α (ERα) positive T47D, human breast cancer cells expressing luciferase (T47D-Luc cells). […] After 24 hours, the cells were harvested, and the % dead cells was determined by automated Trypan Blue exclusion using the Countess II automated hemocytometer. Percentage of viable cells was calculated by doing 100-(Cell Death %). […]
# T47D cells were incubated for 24 hours with 75 nM of BHPI or 75 nM of each of the indicated test compounds: 4 and 6. Cell death was determined using the instrument-based Trypan Blue exclusion assay. […]
# T47D cells were treated for 24 hours with 100 nM BHPI, or with 100 nM of each of the test compounds: 6, 8, and 105. […] Cell death was determined using the instrument-based Trypan Blue exclusion assay. […]
SMILES,ability to kill TDG cells compared to BHPI (TDG cells; 75 nM),ability to kill TYS cells compared to BHPI (TYS cells; 35 nM),ability to kill TYS cells compared to BHPI (TYS cells; 50 nM),cell death (MCF-7 cells [1]),"IC50 (MCF-7 cells [2]; Homo sapiens, MCF7) [nM]",ability to kill T47D cells compared to BHPI (T47D cells; 100 nM),"killing of TDG-Luc cells, dose response (TDG cells; TDG-Luc)","killing of TYS-Luc cells, dose response (TYS cells; TYS-Luc)",IC50 (MCF-7 cells [2]; listed as (R)-1) [nM],"ability to kill compared with BHPI and 01-15 (FIG. 4B) (MCF-7 cells [2]; 24 hour incubation, dead control raptinal)","killing of T47D cells, dose response (T47D cells; T47D-Luc)"
"O=C1Nc2c(C(F)(F)F)cccc2C1(c1ccc(O)cc1)c1ccc(OC(F)(F)F)cc1 (racemic) [(±)-105, 3-(4-hydroxyphenyl)-3-(4-(trifluoromethoxy)phenyl)-7-(trifluoromethyl)indolin-2-one]",greatly increased ability to kill,greatly increased ability to kill,increased ability to kill,inactive,42.6,increased ability to kill,–,–,–,–,–
"O=C1Nc2c(C(F)(F)F)cccc2C1(c1ccc(O)cc1)c1ccc(OC(F)(F)F)cc1 (single isomer, unassigned; (-)) [(−)-105, 3-(4-hydroxyphenyl)-3-(4-(trifluoromethoxy)phenyl)-7-(trifluoromethyl)indolin-2-one]",–,–,–,induces dose-dependent death,–,–,superior to BHPI and current endocrine therapies,superior to BHPI,20.3,superior to BHPI and 01-15,superior to BHPI
